The results in this text go back to patent publication US11814372B2, “Agonists of EPHA and their uses” (CASE WESTERN RESERVE UNIVERSITY, priority 2017, dated 2023).

Common to all, as to assay type: cell-based
For test [1], the target named is T1, EphA2 (Homo sapiens, UniProt P29317). The experiment in a line: EphA2 activation in HEK 293-A2 cells (pEphA/B immunoblot). Set-up: expressed in transfected cells; host or cells: HEK 293 (HEK 293-A2). As to the method: (§1) Cells were plated in 24-well dishes at a density of 100,000 cells/well and grown for 24 hours prior to stimulation with appropriate compounds and ephrins for the given amounts of time. Compounds were prepared in DMSO at 500 times the final concentrations and 0.2% DMSO was used as vehicle control. Following treatment, cells were lysed directly in SDS Gel Loading Buffer and immunoblotted as described previously. Immunoprecipitation and immunofluorescence staining was performed as described. For immunoprecipitation, 300,000 cells/well were plated in 6-well dishes and lysed in modified RIPA Buffer (20 mM Tris-HCl pH 7.4, 20 mM NaF, 150 mM NaCl, 10% glycerol, 0.1% SDS, 0.5% DCA, 2 mM EDTA, 1% Triton X-100) following treatment. Either […] of ephrin-A1-Fc, or […] of EphA2 mouse monoclonal antibody (Clone D7, Millipore) were used, and mouse IgG was used as a negative control for EphA2 IP.
T1 sequence (P29317 24-976): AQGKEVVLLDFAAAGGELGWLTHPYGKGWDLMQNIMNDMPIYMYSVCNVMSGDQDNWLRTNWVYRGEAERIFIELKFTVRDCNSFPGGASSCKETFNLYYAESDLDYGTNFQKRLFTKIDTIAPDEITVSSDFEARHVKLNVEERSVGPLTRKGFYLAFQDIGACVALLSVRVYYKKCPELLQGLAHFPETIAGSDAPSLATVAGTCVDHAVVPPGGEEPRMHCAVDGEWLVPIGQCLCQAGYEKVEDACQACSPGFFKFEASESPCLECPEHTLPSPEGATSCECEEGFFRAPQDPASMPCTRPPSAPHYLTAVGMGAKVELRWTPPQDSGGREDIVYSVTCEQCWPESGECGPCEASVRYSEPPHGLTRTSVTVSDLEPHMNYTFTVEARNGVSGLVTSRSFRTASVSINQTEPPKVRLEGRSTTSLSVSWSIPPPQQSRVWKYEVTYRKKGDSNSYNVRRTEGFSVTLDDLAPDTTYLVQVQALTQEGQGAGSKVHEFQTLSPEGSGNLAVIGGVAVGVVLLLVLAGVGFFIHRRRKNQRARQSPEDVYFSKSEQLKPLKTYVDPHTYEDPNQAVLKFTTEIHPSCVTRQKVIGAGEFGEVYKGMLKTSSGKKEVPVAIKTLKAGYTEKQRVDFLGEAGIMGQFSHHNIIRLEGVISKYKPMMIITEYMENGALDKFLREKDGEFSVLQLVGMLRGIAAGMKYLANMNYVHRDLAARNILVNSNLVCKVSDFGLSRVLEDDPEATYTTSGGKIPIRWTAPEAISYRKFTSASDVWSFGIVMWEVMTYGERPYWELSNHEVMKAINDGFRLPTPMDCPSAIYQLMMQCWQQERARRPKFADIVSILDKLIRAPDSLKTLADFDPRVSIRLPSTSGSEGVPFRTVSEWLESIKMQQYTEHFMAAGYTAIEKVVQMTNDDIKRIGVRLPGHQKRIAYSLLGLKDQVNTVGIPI
(§2) To determine whether the EphA2 agonist activity of doxazosin is cell-context specific, we evaluated the effects of doxazosin on additional cell types. We first utilized HEK 293 cells overexpressing EphA2 (HEK 293-A2) that we described previously. […] Next we tested PC-3 cells that express high levels of endogenous EphA2 receptor. […] We next evaluated the time-course of activation in both MDA-231-A2 and HEK 293-A2 cells upon treatment with a single 50 μM dose of doxazosin.

The next test deals with T2, EphA4 (Homo sapiens, UniProt P54764).
T2 construct: expressed in transfected cells; host or cells: HEK 293
T2 sequence (P54764 20-986, species assumed): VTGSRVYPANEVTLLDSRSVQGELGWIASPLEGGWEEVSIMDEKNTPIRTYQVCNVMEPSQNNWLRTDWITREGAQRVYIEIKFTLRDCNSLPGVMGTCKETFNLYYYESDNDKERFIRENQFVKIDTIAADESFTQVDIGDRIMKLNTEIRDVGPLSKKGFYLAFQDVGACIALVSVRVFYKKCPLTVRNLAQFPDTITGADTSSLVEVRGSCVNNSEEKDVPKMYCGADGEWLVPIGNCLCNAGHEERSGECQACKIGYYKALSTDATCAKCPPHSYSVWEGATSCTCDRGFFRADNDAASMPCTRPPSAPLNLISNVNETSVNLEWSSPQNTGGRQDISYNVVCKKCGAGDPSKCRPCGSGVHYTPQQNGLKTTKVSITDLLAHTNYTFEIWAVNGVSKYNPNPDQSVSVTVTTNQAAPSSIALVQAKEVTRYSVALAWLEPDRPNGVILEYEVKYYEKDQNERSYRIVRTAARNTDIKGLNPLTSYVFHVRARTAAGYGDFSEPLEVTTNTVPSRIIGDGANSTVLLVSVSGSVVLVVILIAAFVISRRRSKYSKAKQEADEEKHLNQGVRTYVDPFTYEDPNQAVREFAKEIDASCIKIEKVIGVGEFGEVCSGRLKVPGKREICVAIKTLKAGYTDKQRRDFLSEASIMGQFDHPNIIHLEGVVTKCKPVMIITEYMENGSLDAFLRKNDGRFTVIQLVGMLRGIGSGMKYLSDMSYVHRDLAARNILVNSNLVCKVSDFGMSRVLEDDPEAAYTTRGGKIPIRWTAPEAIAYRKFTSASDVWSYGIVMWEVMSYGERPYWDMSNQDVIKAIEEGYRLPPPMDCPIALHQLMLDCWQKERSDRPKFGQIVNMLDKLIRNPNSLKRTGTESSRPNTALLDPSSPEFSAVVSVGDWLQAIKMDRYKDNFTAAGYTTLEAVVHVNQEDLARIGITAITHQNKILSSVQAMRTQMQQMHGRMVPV
The experiment in a line: Eph receptor activation in HEK 293 cells overexpressing EphA4. To be noted: HEK 293 cells overexpressing EphA4, 60 minutes.

The target in test [2] is T1, EphA2. The experiment in a line: Activation of endogenous EphA2 in PC-3 cells (pEphA/B immunoblot). Set-up: host or cells: PC-3. To be noted: endogenous EphA2, 30 minutes. The method, then:
as §1, §2
(Immunoblotting shows a protein as a band on a membrane.)

The subject of test [3] is MDA-MB-231, A172-A2 and PC3-DAB2IP KD cells. In words: Chemotactic cell migration toward hepatocyte growth factor (HGF). To be noted: all three cell lines; lesser degree than in the haptotactic assay.

Experimental for EphA4: Cells were plated in 24-well dishes at a density of 100,000 cells/well and grown for 24 hours prior to stimulation with appropriate compounds and ephrins for the given amounts of time. Compounds were prepared in DMSO at 500 times the final concentrations and 0.2% DMSO was used as vehicle control. Following treatment, cells were lysed directly in SDS Gel Loading Buffer and immunoblotted as described previously. […] For this purpose, HEK 293 cell lines overexpressing EphA1, EphA2, EphA3, EphA4, and EphB3 kinases were utilized.

On to `COc1cc2nc(N3CCN(C(=O)C4COc5ccccc5O4)CC3)nc(N)c2cc1OC` (stereo not drawn) [doxazosin], for which the “concentration at which significant EphA2 activation starts” value at EphA2 [1] (HEK 293-A2 cells, 30 minutes) worked out at 25 µM. Moreover, the “time at which EphA2 activation became evident” value at EphA2 [1] (HEK 293-A2 cells, single 50 μM dose) came out at 10 min. Moreover, the “EphA2 kinase activation, Eph receptor panel” value at EphA2 [1] (HEK 293 cells overexpressing EphA2, 60 minutes) was “activated both EphA2 and EphA4 kinases”. The “EphA4 kinase activation, Eph receptor panel” value at EphA4 is “activated both EphA2 and EphA4 kinases”. Moreover, the “concentration at which EphA2 activation became evident” value at EphA2 [2] came out at 50 µM. For the same compound, the “chemotactic cell migration toward HGF” value in test [3] is on record as “dose-dependent inhibition”.
